In patent US20250197374A1, “WEE1 DEGRADING COMPOUNDS AND USES THEREOF” (BRISTOL-MYERS SQUIBB COMPANY, priority 2023, published 2025):

Tests used:
Type in all cases: cell-based
MKN45 cells = assay: MKN45 cell proliferation assay (Cell-Titer-Glo, 120 hr); conditions: for EC50: Homo sapiens, MKN-45, 120 h, read-out: MKN45 Cell Prolif. 120 hr EC50; for MKN45 Cell Prolif. 120 hr YMin (%): minimal percent of DMSO control observed
Outline: (§1)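 MKN45 (400/well) and MDA-MB-231 (800/well) cells in RPMI with 10% FBS were exposed to 10-point half-log doses from 1 or 10 uM (0.1% DMSO) for 120 h at 37 °C. Viability was read by CellTiter-Glo luminescence. EC50 came from blank-subtracted, %DMSO four-parameter fits, with Ymin-obs as the lowest %DMSO observed.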

MDA-MB-231 cells = assay: MDA-MB-231 cell proliferation assay (Cell-Titer-Glo, 120 hr); conditions: for EC50: Homo sapiens, MDA-MB-231, 120 h, read-out: MDA-MB 231 Cell Prolif. 120 hr EC50; for MDA-MB 231 Cell Prolif. 120 hr YMin (%): minimal percent of DMSO control observed
Outline: as §1

WEE1 = target: T1, WEE1 (Homo sapiens, UniProt P30291+Q96SW2); assay: WEE1-ePL degradation assay (293T-LentiX, InCELL Hunter luminescence, 4 hr); conditions: for 293T-LentiX WEE1-ePL Degradation 4 hr YMin (%): lower limit of fit, % of DMSO control signal remaining; for DC50: LentiX-HEK293T cells expressing WEE1-ePL, 4 hr incubation, read-out: 293T-LentiX WEE1-ePL Degradation 4 hr EC50
T1 construct: C-terminal ePL-tagged (DiscoverX, Fremont, CA) full-length WEE1 expression construct; expressed in transfected cells; host or cells: LentiX-HEK293T (Invitrogen), lentivirally transduced; the cells also over-express GSPT1-GN
T1 sequence (P30291 whole entry): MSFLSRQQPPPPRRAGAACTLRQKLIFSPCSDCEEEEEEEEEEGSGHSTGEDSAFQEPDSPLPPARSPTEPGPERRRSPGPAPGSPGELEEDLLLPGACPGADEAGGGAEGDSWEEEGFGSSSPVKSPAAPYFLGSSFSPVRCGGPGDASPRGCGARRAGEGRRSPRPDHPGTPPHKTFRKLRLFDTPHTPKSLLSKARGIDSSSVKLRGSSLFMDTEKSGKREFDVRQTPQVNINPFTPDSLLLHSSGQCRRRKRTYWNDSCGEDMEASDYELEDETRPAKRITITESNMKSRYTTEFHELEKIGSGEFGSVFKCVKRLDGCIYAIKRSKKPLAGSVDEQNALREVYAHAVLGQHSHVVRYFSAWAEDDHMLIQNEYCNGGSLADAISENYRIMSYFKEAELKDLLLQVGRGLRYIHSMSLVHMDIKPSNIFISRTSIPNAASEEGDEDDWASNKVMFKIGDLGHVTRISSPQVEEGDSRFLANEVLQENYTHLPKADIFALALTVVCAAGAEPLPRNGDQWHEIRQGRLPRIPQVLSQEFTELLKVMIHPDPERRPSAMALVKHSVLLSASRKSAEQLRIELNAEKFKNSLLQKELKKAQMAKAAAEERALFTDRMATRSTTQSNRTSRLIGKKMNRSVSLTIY
T1 sequence (Q96SW2 whole entry): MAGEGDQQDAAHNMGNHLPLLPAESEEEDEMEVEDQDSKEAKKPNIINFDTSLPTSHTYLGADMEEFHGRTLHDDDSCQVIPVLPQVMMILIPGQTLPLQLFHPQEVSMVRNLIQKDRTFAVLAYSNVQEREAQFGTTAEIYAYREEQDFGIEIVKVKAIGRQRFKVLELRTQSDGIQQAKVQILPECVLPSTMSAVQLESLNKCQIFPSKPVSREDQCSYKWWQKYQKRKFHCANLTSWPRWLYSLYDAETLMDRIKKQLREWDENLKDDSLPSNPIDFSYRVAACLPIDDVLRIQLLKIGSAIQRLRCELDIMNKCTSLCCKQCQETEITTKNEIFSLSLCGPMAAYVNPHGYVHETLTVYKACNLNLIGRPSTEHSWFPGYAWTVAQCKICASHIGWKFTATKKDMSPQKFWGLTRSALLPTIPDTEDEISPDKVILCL
T1 sequence (Q16531 whole entry partner): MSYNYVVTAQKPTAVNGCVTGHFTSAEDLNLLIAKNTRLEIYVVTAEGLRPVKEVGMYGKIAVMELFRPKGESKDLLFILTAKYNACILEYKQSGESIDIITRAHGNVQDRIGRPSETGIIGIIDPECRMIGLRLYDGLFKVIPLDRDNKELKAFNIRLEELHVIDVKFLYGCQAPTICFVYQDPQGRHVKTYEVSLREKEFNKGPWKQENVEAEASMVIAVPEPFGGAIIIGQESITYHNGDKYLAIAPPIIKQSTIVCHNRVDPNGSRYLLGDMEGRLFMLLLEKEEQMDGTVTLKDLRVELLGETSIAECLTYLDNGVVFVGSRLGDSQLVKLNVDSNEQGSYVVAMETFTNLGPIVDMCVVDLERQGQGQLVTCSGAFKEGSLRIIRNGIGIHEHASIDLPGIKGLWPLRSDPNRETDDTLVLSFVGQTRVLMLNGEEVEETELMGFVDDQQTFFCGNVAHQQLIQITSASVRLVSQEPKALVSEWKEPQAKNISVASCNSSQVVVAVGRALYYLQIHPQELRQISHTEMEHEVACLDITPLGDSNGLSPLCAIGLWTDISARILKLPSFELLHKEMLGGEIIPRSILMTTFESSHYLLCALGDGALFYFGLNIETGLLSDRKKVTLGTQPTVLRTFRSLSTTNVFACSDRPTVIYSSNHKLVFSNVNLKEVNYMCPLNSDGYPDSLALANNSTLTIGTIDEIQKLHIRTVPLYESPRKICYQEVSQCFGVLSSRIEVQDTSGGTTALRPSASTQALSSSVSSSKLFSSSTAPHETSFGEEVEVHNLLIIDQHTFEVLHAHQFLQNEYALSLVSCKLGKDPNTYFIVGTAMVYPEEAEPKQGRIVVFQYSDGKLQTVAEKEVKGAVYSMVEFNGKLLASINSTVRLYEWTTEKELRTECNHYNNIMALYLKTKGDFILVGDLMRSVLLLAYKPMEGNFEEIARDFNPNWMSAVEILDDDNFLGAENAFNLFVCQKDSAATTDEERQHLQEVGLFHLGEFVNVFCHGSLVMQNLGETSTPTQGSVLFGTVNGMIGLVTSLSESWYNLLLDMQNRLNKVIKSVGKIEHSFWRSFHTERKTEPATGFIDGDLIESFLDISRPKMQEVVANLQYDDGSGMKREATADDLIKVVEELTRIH
Outline: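 LentiX-HEK293T cells expressing C-terminally ePL-tagged full-length WEE1 plus non-degradable GSPT1-GN (G575N, N-terminal 158 aa truncated). Treated 4 h at 37 °C with a 10-point, 3-fold series from 1 or 10 µM, then read by InCELL Hunter luminescence. EC50 from four-parameter logistic fit, Ymax set by DMSO control.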

Compound: COC[C@@H]1CN(Cc2ccc3nc(N4CCN(C5COC5)CC4)ccc3c2)C[C@H]1Oc1ccc2c(c1)CN([C@H]1CCC(=O)NC1=O)C2=O [Example 104, (3S)-3-(5-{[(3S,4S)-4-(methoxymethyl)-1-({2-[4-(oxetan-3-yl)piperazin-1-yl]quinolin-6-yl}methyl)pyrrolidin-3-yl]oxy}-1-oxo-2,3-dihydro-1H-isoindol-2-yl)piperidine-2,6-dione]
- EC50 (MKN45 cells): 1 nM
- MKN45 Cell Prolif. 120 hr YMin (%) (MKN45 cells): 8.2%
- EC50 (MDA-MB-231 cells): 18 nM
- MDA-MB 231 Cell Prolif. 120 hr YMin (%) (MDA-MB-231 cells): 42.5%
- 293T-LentiX WEE1-ePL Degradation 4 hr YMin (%) (WEE1): 21.3%

Compound: COC[C@@H]1CN(Cc2ccc3ccc(N4CCOCC4)nc3c2F)C[C@H]1Oc1ccc2c(c1)CN([C@H]1CCC(=O)NC1=O)C2=O [Example 105, (3S)-3-(5-{[(3S,4S)-1-{[8-fluoro-2-(morpholin-4-yl)quinolin-7-yl]methyl}-4-(methoxymethyl)pyrrolidin-3-yl]oxy}-1-oxo-2,3-dihydro-1H-isoindol-2-yl)piperidine-2,6-dione]
- EC50 (MKN45 cells): 87 nM
- MKN45 Cell Prolif. 120 hr YMin (%) (MKN45 cells): 83.4%
- EC50 (MDA-MB-231 cells): 234 nM
- MDA-MB 231 Cell Prolif. 120 hr YMin (%) (MDA-MB-231 cells): 91.5%
- DC50 (WEE1): 1 nM
- 293T-LentiX WEE1-ePL Degradation 4 hr YMin (%) (WEE1): 40.7%

Compound: COC[C@@H]1CN(Cc2cc(F)c3nc(C(=O)N4CCOCC4)ccc3c2)C[C@H]1Oc1ccc2c(c1)CN([C@H]1CCC(=O)NC1=O)C2=O [Example 106, (3S)-3-(5-{[(3S,4S)-1-{[8-fluoro-2-(morpholine-4-carbonyl)quinolin-6-yl]methyl}-4-(methoxymethyl)pyrrolidin-3-yl]oxy}-1-oxo-2,3-dihydro-1H-isoindol-2-yl)piperidine-2,6-dione]
- EC50 (MKN45 cells): 18 nM
- MKN45 Cell Prolif. 120 hr YMin (%) (MKN45 cells): 11.5%
- EC50 (MDA-MB-231 cells): 18 nM
- MDA-MB 231 Cell Prolif. 120 hr YMin (%) (MDA-MB-231 cells): 50.8%
- DC50 (WEE1): 4 nM
- 293T-LentiX WEE1-ePL Degradation 4 hr YMin (%) (WEE1): 29.8%

Compound: COC[C@@H]1CN(Cc2cc(F)c3nc(CC(C)(C)O)ncc3c2)C[C@H]1Oc1ccc2c(c1)CN([C@H]1CCC(=O)NC1=O)C2=O [Example 107, (3S)-3-(5-{[(3S,4S)-1-{[8-fluoro-2-(2-hydroxy-2-methylpropyl)quinazolin-6-yl]methyl}-4-(methoxymethyl)pyrrolidin-3-yl]oxy}-1-oxo-2,3-dihydro-1H-isoindol-2-yl)piperidine-2,6-dione]
- EC50 (MKN45 cells): 13 nM
- MKN45 Cell Prolif. 120 hr YMin (%) (MKN45 cells): 10.4%
- EC50 (MDA-MB-231 cells): 134 nM
- MDA-MB 231 Cell Prolif. 120 hr YMin (%) (MDA-MB-231 cells): 51.6%
- DC50 (WEE1): 8 nM
- 293T-LentiX WEE1-ePL Degradation 4 hr YMin (%) (WEE1): 19.5%

Compound: COC[C@@H]1CN(Cc2ccc3ccc(N4CCOCC4)nc3c2)C[C@H]1Oc1ccc2c(c1)CN([C@H]1CCC(=O)NC1=O)C2=O [Example 108, (3S)-3-(5-{[(3S,4S)-4-(methoxymethyl)-1-{[2-(morpholin-4-yl)quinolin-7-yl]methyl}pyrrolidin-3-yl]oxy}-1-oxo-2,3-dihydro-1H-isoindol-2-yl)piperidine-2,6-dione]
- EC50 (MKN45 cells): 340 nM
- MKN45 Cell Prolif. 120 hr YMin (%) (MKN45 cells): 89.6%
- EC50 (MDA-MB-231 cells): 3100 nM
- MDA-MB 231 Cell Prolif. 120 hr YMin (%) (MDA-MB-231 cells): 82.8%
- DC50 (WEE1): 8 nM
- 293T-LentiX WEE1-ePL Degradation 4 hr YMin (%) (WEE1): 61.2%

Compound: COC[C@@H]1CN(Cc2cc(F)c3ncc(C4CCOCC4)cc3c2)C[C@H]1Oc1ccc2c(c1)CN([C@H]1CCC(=O)NC1=O)C2=O [Example 109, (3S)-3-(5-{[(3S,4S)-1-{[8-fluoro-3-(oxan-4-yl)quinolin-6-yl]methyl}-4-(methoxymethyl)pyrrolidin-3-yl]oxy}-1-oxo-2,3-dihydro-1H-isoindol-2-yl)piperidine-2,6-dione]
- EC50 (MKN45 cells): 1 nM
- MKN45 Cell Prolif. 120 hr YMin (%) (MKN45 cells): 8.7%
- EC50 (MDA-MB-231 cells): 16 nM
- MDA-MB 231 Cell Prolif. 120 hr YMin (%) (MDA-MB-231 cells): 37.3%
- 293T-LentiX WEE1-ePL Degradation 4 hr YMin (%) (WEE1): 27.5%

Compound: COC[C@@H]1CN(Cc2cc(F)c3nc(N4CCC(C(C)(C)O)CC4)ccc3c2)C[C@H]1Oc1ccc2c(c1)CN([C@H]1CCC(=O)NC1=O)C2=O [Example 110, (3S)-3-(5-{[(3S,4S)-1-({8-fluoro-2-[4-(2-hydroxypropan-2-yl)piperidin-1-yl]quinolin-6-yl}methyl)-4-(methoxymethyl)pyrrolidin-3-yl]oxy}-1-oxo-2,3-dihydro-1H-isoindol-2-yl)piperidine-2,6-dione]
- MKN45 Cell Prolif. 120 hr YMin (%) (MKN45 cells): 6.8%
- EC50 (MDA-MB-231 cells): 12 nM
- MDA-MB 231 Cell Prolif. 120 hr YMin (%) (MDA-MB-231 cells): 17.4%
- 293T-LentiX WEE1-ePL Degradation 4 hr YMin (%) (WEE1): 27.3%

Compound: COC[C@@H]1CN(Cc2ccc3nc(N4CCN(C5CN(C)C5)CC4)ccc3c2)C[C@H]1Oc1ccc2c(c1)CN([C@H]1CCC(=O)NC1=O)C2=O [Example 113, (3S)-3-(5-{[(3S,4S)-4-(methoxymethyl)-1-({2-[4-(1-methylazetidin-3-yl)piperazin-1-yl]quinolin-6-yl}methyl)pyrrolidin-3-yl]oxy}-1-oxo-2,3-dihydro-1H-isoindol-2-yl)piperidine-2,6-dione]
- EC50 (MKN45 cells): 4 nM
- MKN45 Cell Prolif. 120 hr YMin (%) (MKN45 cells): 9.0%
- EC50 (MDA-MB-231 cells): 98 nM
- MDA-MB 231 Cell Prolif. 120 hr YMin (%) (MDA-MB-231 cells): 55.3%
- DC50 (WEE1): 9 nM
- 293T-LentiX WEE1-ePL Degradation 4 hr YMin (%) (WEE1): 29.5%

Compound: COC[C@@H]1CN(Cc2ccc3nc(C4CCN(C5COC5)CC4)ccc3c2)C[C@H]1Oc1ccc2c(c1)CN([C@H]1CCC(=O)NC1=O)C2=O [Example 114, (3S)-3-(5-{[(3S,4S)-4-(methoxymethyl)-1-({2-[1-(oxetan-3-yl)piperidin-4-yl]quinolin-6-yl}methyl)pyrrolidin-3-yl]oxy}-1-oxo-2,3-dihydro-1H-isoindol-2-yl)piperidine-2,6-dione]
- EC50 (MKN45 cells): 1 nM
- MKN45 Cell Prolif. 120 hr YMin (%) (MKN45 cells): 8.6%
- EC50 (MDA-MB-231 cells): 14 nM
- MDA-MB 231 Cell Prolif. 120 hr YMin (%) (MDA-MB-231 cells): 47.4%
- 293T-LentiX WEE1-ePL Degradation 4 hr YMin (%) (WEE1): 29.7%

Compound: COC[C@@H]1CN(Cc2cc3ccc(C(=O)N(C)C)cc3cn2)C[C@H]1Oc1ccc2c(c1)CN([C@H]1CCC(=O)NC1=O)C2=O [Example 115, 3-{[(3S,4S)-3-({2-[(3S)-2,6-dioxopiperidin-3-yl]-1-oxo-2,3-dihydro-1H-isoindol-5-yl}oxy)-4-(methoxymethyl)pyrrolidin-1-yl]methyl}-N,N-dimethyliso-quinoline-7-carboxamide]
- EC50 (MKN45 cells): 9 nM
- MKN45 Cell Prolif. 120 hr YMin (%) (MKN45 cells): 9.4%
- EC50 (MDA-MB-231 cells): 213 nM
- MDA-MB 231 Cell Prolif. 120 hr YMin (%) (MDA-MB-231 cells): 41.5%
- DC50 (WEE1): 6 nM
- 293T-LentiX WEE1-ePL Degradation 4 hr YMin (%) (WEE1): 21.5%
